According to ChEMBL document CHEMBL3046439, “Spectroscopic characterization of novel d-amino acid-Schiff bases and their Cr(III) and Ni(II) complexes as antimicrobial agents” (2013):

Assays:
Candida albicans = assay: Antimicrobial activity against Candida albicans Y-1200-NIH assessed as diameter of growth inhibition zone at 0.25 ug/ml after 24 hr by well-diffusion method; type: functional; conditions: read-out: DIZ
Shigella dysenteriae = assay: Antimicrobial activity against Shigella dysenteriae type 10 NCTC 9351 assessed as diameter of growth inhibition zone at 0.25 ug/ml after 24 hr by well diffusion method; type: functional; conditions: type 10 NCTC 9351, 24 h, read-out: DIZ
Micrococcus luteus = assay: Antimicrobial activity against Micrococcus luteus ATCC 9341 assessed as diameter of growth inhibition zone at 0.25 ug/ml after 24 hr by well-diffusion method; type: functional; conditions: ATCC 9341, 24 h, read-out: DIZ
[1] = test system: Staphylococcus epidermidis; assay: Antimicrobial activity against Staphylococcus epidermidis assessed as diameter of growth inhibition zone at 0.25 ug/ml after 24 hr by well diffusion method; type: functional; conditions: read-out: DIZ
Brucella abortus [2] = assay: Antimicrobial activity against Brucella abortus (A.99, UK-1995) RSKK03026 assessed as diameter of growth inhibition zone at 0.25 ug/ml after 24 hr by well-diffusion method; type: functional; conditions: (A.99, UK-1995) RSKK03026, 24 h, read-out: DIZ
Salmonella typhi [3] = assay: Antimicrobial activity against Salmonella enterica subsp. enterica serovar Typhi H NCTC 901.8394 assessed as diameter of growth inhibition zone at 0.25 ug/ml after 24 hr by well-diffusion method; type: functional; conditions: H NCTC 901.8394, 24 h, read-out: DIZ
Escherichia coli [4] = assay: Antimicrobial activity against Escherichia coli ATCC 1280 assessed as diameter of growth inhibition zone at 0.25 ug/ml after 24 hr by well-diffusion method; type: functional; conditions: ATCC 1280, 24 h, read-out: DIZ
Staphylococcus aureus [5] = assay: Antimicrobial activity against Staphylococcus aureus ATCC 25923 assessed as diameter of growth inhibition zone at 0.25 ug/ml after 24 hr by well-diffusion method; type: functional; conditions: ATCC 25923, 24 h, read-out: DIZ
Listeria monocytogenes [6] = assay: Antimicrobial activity against Listeria monocytogenes ATCC 19115 assessed as diameter of growth inhibition zone at 0.25 ug/ml after 24 hr by well-diffusion method; type: functional; conditions: ATCC 19115, 24 h, read-out: DIZ
Salmonella typhi [7] = assay: Antimicrobial activity against Salmonella enterica subsp. enterica serovar Typhi H NCTC 901.8394 assessed as diameter of growth inhibition zone at 30 ug after 24 hr by well-diffusion method; type: functional; conditions: H NCTC 901.8394, 24 h, read-out: DIZ
Escherichia coli [8] = assay: Antimicrobial activity against Escherichia coli ATCC 1280 assessed as diameter of growth inhibition zone at 30 ug after 24 hr by well-diffusion method; type: functional; conditions: ATCC 1280, 24 h, read-out: DIZ
Listeria monocytogenes [9] = assay: Antimicrobial activity against Listeria monocytogenes ATCC 19115 assessed as diameter of growth inhibition zone at 30 ug after 24 hr by well-diffusion method; type: functional; conditions: ATCC 19115, 24 h, read-out: DIZ
Staphylococcus aureus [10] = assay: Antimicrobial activity against Staphylococcus aureus ATCC 25923 assessed as diameter of growth inhibition zone at 30 ug after 24 hr by well-diffusion method; type: functional; conditions: ATCC 25923, 24 h, read-out: DIZ
Salmonella typhi [11] = assay: Antimicrobial activity against Salmonella enterica subsp. enterica serovar Typhi H NCTC 901.8394 assessed as diameter of growth inhibition zone at 10 ug after 24 hr by well-diffusion method; type: functional; conditions: H NCTC 901.8394, 24 h, read-out: DIZ
Escherichia coli [12] = assay: Antimicrobial activity against Escherichia coli ATCC 1280 assessed as diameter of growth inhibition zone at 10 ug after 24 hr by well-diffusion method; type: functional; conditions: ATCC 1280, 24 h, read-out: DIZ
Listeria monocytogenes [13] = assay: Antimicrobial activity against Listeria monocytogenes ATCC 19115 assessed as diameter of growth inhibition zone at 10 ug after 24 hr by well-diffusion method; type: functional; conditions: ATCC 19115, 24 h, read-out: DIZ
Staphylococcus aureus [14] = assay: Antimicrobial activity against Staphylococcus aureus ATCC 25923 assessed as diameter of growth inhibition zone at 10 ug after 24 hr by well-diffusion method; type: functional; conditions: ATCC 25923, 24 h, read-out: DIZ
Brucella abortus [15] = assay: Antimicrobial activity against Brucella abortus (A.99, UK-1995) RSKK03026 assessed as diameter of growth inhibition zone at 30 ug after 24 hr by well-diffusion method; type: functional; conditions: (A.99, UK-1995) RSKK03026, 24 h, read-out: DIZ
Salmonella typhi [16] = assay: Antimicrobial activity against Salmonella enterica subsp. enterica serovar Typhi H NCTC 901.8394 assessed as diameter of growth inhibition zone at 25 ug after 24 hr by well-diffusion method; type: functional; conditions: H NCTC 901.8394, 24 h, read-out: DIZ
Listeria monocytogenes [17] = assay: Antimicrobial activity against Listeria monocytogenes ATCC 19115 assessed as diameter of growth inhibition zone at 25 ug after 24 hr by well-diffusion method; type: functional; conditions: ATCC 19115, 24 h, read-out: DIZ
Staphylococcus aureus [18] = assay: Antimicrobial activity against Staphylococcus aureus ATCC 25923 assessed as diameter of growth inhibition zone at 25 ug after 24 hr by well-diffusion method; type: functional; conditions: ATCC 25923, 24 h, read-out: DIZ
Escherichia coli [19] = assay: microbe, parasite or virus in culture; conditions: ATCC 1280, 24 h, read-out: DIZ

Compound	zone of inhibition at 0.25 µg/mL (Candida albicans) [mm]	zone of inhibition at 0.25 µg/mL (Shigella dysenteriae) [mm]	zone of inhibition at 0.25 µg/mL (Micrococcus luteus) [mm]	zone of inhibition at 0.25 µg/mL [1] [mm]	zone of inhibition at 0.25 µg/mL (Brucella abortus [2]) [mm]	zone of inhibition at 0.25 µg/mL (Salmonella typhi [3]) [mm]	zone of inhibition at 0.25 µg/mL (Escherichia coli [4]) [mm]	zone of inhibition at 0.25 µg/mL (Staphylococcus aureus [5]) [mm]	zone of inhibition at 0.25 µg/mL (Listeria monocytogenes [6]) [mm]	other results
C[C@@H](/N=C/c1cc(F)cc(Cl)c1O)C(=O)O	15	11.5	23.5	12	17.5	11.5	15.5	16	12.5	
O=C(O)C/N=C/c1cc(F)cc(Cl)c1O	15.5	18	26.5	12.5	15	18	16	18.5	10	
C[C@@H](/N=C/c1cc(F)ccc1O)C(=O)O	12.5		14	5	10.5		10	6	6.5	
O=C(O)C/N=C/c1cc(F)ccc1O	10	11	15	6	11.5	15	13	7	10	
CC1(C)S[C@@H]2[C@H](NC(=O)[C@H](N)c3ccc(O)cc3)C(=O)N2[C@H]1C(=O)O [AMOXICILLIN]										zone of inhibition at 30 µg/disc (Salmonella typhi [7]): 19 mm; zone of inhibition at 30 µg/disc (Escherichia coli [8]): 14 mm; zone of inhibition at 30 µg/disc (Listeria monocytogenes [9]): 22 mm; zone of inhibition at 30 µg/disc (Staphylococcus aureus [10]): 30 mm
CC1(C)S[C@@H]2[C@H](NC(=O)[C@H](N)c3ccccc3)C(=O)N2[C@H]1C(=O)O [AMPICILLIN]										zone of inhibition at 10 µg/disc (Salmonella typhi [11]): 11 mm; zone of inhibition at 10 µg/disc (Escherichia coli [12]): 10 mm; zone of inhibition at 10 µg/disc (Listeria monocytogenes [13]): 16 mm; zone of inhibition at 10 µg/disc (Staphylococcus aureus [14]): 30 mm
NC[C@H]1O[C@H](O[C@H]2[C@H](O)[C@@H](O[C@H]3O[C@H](CO)[C@@H](O)[C@H](N)[C@H]3O)[C@H](N)C[C@@H]2N)[C@H](O)[C@@H](O)[C@@H]1O [KANAMYCIN]										zone of inhibition at 30 µg/disc (Salmonella typhi [7]): 20 mm; zone of inhibition at 30 µg/disc (Escherichia coli [8]): 25 mm; zone of inhibition at 30 µg/disc (Listeria monocytogenes [9]): 15 mm; zone of inhibition at 30 µg/disc (Staphylococcus aureus [10]): 25 mm
CC1(C)[C@H](C(=O)O)N2C(=O)C[C@H]2S1(=O)=O [SULBACTAM]										zone of inhibition at 30 µg/disc (Brucella abortus [15]): 12 mm
Cc1cc(NS(=O)(=O)c2ccc(N)cc2)no1 [SULFAMETHOXAZOLE]										zone of inhibition at 25 µg/disc (Salmonella typhi [16]): 17 mm; zone of inhibition at 25 µg/disc (Listeria monocytogenes [17]): 11 mm; zone of inhibition at 25 µg/disc (Staphylococcus aureus [18]): 24 mm; zone of inhibition at 25 µg/disc (Escherichia coli [19]): 18 mm
